Earlier results as cited in PubChem BioAssay AID1259409 (Chemical Carcinogenesis Research Information System (CCRIS), 2018).
“And” between values parts separate entries of the source, which are not always exact repeats. Equal entries are not always repeated.

Tested on: rodent chemically induced tumor inhibition, incidence and multiplicity
Experiment: CCRIS tumor inhibitor studies

Structure (SMILES): CCN(CC)CCCCCCCCOC(=O)c1cc(OC)c(OC)c(OC)c1
- tumour outcome (control, treated, inhibition, significance) (Carcinogen: 7,12-DIMETHYLBENZ[A]ANTHRACENE, 57-97-6, Dose [Inhibitor]: 0, 1.1 UMOL 1/WK FOR 27 WK APPLIED 1 HR POST EACH PROMOTER DOSE (STUDY DURATION: 27 WK), Route [Inhibitor]: DERMAL, Species: MOUSE, Strain/Sex: SENCAR/FEMALE, Target Tissue: Type of Lesion: SKIN: PAPILLOMA, Dose [Carcinogen]: 25 NMOL ONCE, Promoter: CHRYSAROBIN, 491-58-7): 85%, 73%, 14%, not significant
- tumour outcome (control, treated, inhibition, significance) (Carcinogen: 7,12-DIMETHYLBENZ[A]ANTHRACENE, 57-97-6, Dose [Inhibitor]: 0, 4.4 UMOL 1/WK FOR 27 WK APPLIED 1 HR POST EACH PROMOTER DOSE (STUDY DURATION: 27 WK), Route [Inhibitor]: DERMAL, Species: MOUSE, Strain/Sex: SENCAR/FEMALE, Target Tissue: Type of Lesion: SKIN: PAPILLOMA, Dose [Carcinogen]: 25 NMOL ONCE, Promoter: CHRYSAROBIN, 491-58-7): 85%, 82%, 4%, not significant

Structure (SMILES): COC(=O)c1cc(O)c(O)c(O)c1
- tumour outcome (control, treated, inhibition, significance) (Carcinogen: 7,12-DIMETHYLBENZ[A]ANTHRACENE, 57-97-6, Dose [Inhibitor]: 0, 20 UMOL IN 0.4 ML ACETONE 20 MIN PRIOR TO EACH PROMOTER DOSE (STUDY DURATION: 47 WK), Route [Inhibitor]: DERMAL, Species: MOUSE, Strain/Sex: CF-1/FEMALE, Target Tissue: Type of Lesion: SKIN: CARCINOMA, Dose [Carcinogen]: 100 NMOL IN 0.2 ML ACETONE ONCE): 67%, 24%, 64%, not calculated
- tumour outcome (control, treated, inhibition, significance) (Carcinogen: 7,12-DIMETHYLBENZ[A]ANTHRACENE, 57-97-6, Dose [Inhibitor]: 0, 20 UMOL IN 0.4 ML ACETONE 20 MIN PRIOR TO EACH PROMOTER DOSE (STUDY DURATION: 47 WK), Route [Inhibitor]: DERMAL, Species: MOUSE, Strain/Sex: CF-1/FEMALE, Target Tissue: Type of Lesion: SKIN: PAPILLOMA, Dose [Carcinogen]: 100 NMOL IN 0.2 ML ACETONE ONCE): 94%, 84%, 11%, p<0.025

Structure (SMILES): CC(=O)OC12C[C@@H](C)[C@@]3(O)[C@@H](C=C(CO)C[C@]4(O)C(=O)C(C)=C[C@@H]34)C1C2(C)C (some centres undefined)
- tumour outcome (control, treated, inhibition, significance) (Carcinogen: 7,12-DIMETHYLBENZ[A]ANTHRACENE, 57-97-6, Dose [Inhibitor]: 0, 256 NMOL 15 D POST INITIATION DOSE FOLLOWED BY 2.56 NMOL 2/WK DURING WK 3-22 APPLIED 15 MIN PRIOR TO EACH PROMOTION D, Route [Inhibitor]: DERMAL, Species: MOUSE, Strain/Sex: CD-1/FEMALE, Target Tissue: Type of Lesion: SKIN: PAPILLOMA, Dose [Carcinogen]: 20 NMOL IN 200 µL ACETONE ONCE): 100%, 95%, 5%, not calculated
- tumour outcome (control, treated, inhibition, significance) (Carcinogen: 7,12-DIMETHYLBENZ[A]ANTHRACENE, 57-97-6, Dose [Inhibitor]: 0, 256 NMOL 15 D POST INITIATION DOSE FOLLOWED BY 2.56 UMOL 2/WK DURING WK 3-22 APPLIED 15 MIN PRIOR TO EACH PROMOTION D, Route [Inhibitor]: DERMAL, Species: MOUSE, Strain/Sex: CD-1/FEMALE, Target Tissue: Type of Lesion: SKIN: PAPILLOMA, Dose [Carcinogen]: 20 NMOL IN 200 µL ACETONE ONCE): 94%, 40%, 57%, not calculated
- tumour outcome (control, treated, inhibition, significance) (Carcinogen: 7,12-DIMETHYLBENZ[A]ANTHRACENE, 57-97-6, Dose [Inhibitor]: 0, 256 NMOL 15 D POST INITIATION DOSE FOLLOWED BY 25.6 NMOL 2/WK DURING WK 3-22 APPLIED 15 MIN PRIOR TO EACH PROMOTION D, Route [Inhibitor]: DERMAL, Species: MOUSE, Strain/Sex: CD-1/FEMALE, Target Tissue: Type of Lesion: SKIN: PAPILLOMA, Dose [Carcinogen]: 20 NMOL IN 200 µL ACETONE ONCE): 94%, 83%, 12%, not calculated and 100%, 80%, 20%, not calculated
- tumour outcome (control, treated, inhibition, significance) (Carcinogen: 7,12-DIMETHYLBENZ[A]ANTHRACENE, 57-97-6, Dose [Inhibitor]: 0, 256 NMOL 15 D POST INITIATION DOSE FOLLOWED BY 25.6 PMOL 2/WK DURING WK 3-22 APPLIED 15 MIN PRIOR TO EACH PROMOTION D, Route [Inhibitor]: DERMAL, Species: MOUSE, Strain/Sex: CD-1/FEMALE, Target Tissue: Type of Lesion: SKIN: PAPILLOMA, Dose [Carcinogen]: 20 NMOL IN 200 µL ACETONE ONCE): 100%, 97%, 3%, not calculated
- tumour outcome (control, treated, inhibition, significance) (Carcinogen: 7,12-DIMETHYLBENZ[A]ANTHRACENE, 57-97-6, Dose [Inhibitor]: 0, 256 NMOL 15 D POST INITIATION DOSE FOLLOWED BY 256 NMOL 2/WK DURING WK 3-22 APPLIED 15 MIN PRIOR TO EACH PROMOTION DO, Route [Inhibitor]: DERMAL, Species: MOUSE, Strain/Sex: CD-1/FEMALE, Target Tissue: Type of Lesion: SKIN: PAPILLOMA, Dose [Carcinogen]: 20 NMOL IN 200 µL ACETONE ONCE): 94%, 33%, 65%, not calculated and 100%, 58%, 42%, not calculated
- tumour outcome (control, treated, inhibition, significance) (Carcinogen: 7,12-DIMETHYLBENZ[A]ANTHRACENE, 57-97-6, Dose [Inhibitor]: 0, 256 NMOL 15 D POST INITIATION DOSE FOLLOWED BY 256 PMOL 2/WK DURING WK 3-22 APPLIED 15 MIN PRIOR TO EACH PROMOTION DO, Route [Inhibitor]: DERMAL, Species: MOUSE, Strain/Sex: CD-1/FEMALE, Target Tissue: Type of Lesion: SKIN: PAPILLOMA, Dose [Carcinogen]: 20 NMOL IN 200 µL ACETONE ONCE): 100%, 100%, 0%, not significant

Structure (SMILES): CCOC(=O)c1ccc(/C=C(\C)c2ccc3c(c2)C(C)(C)CCC3(C)C)cc1
- tumour outcome (control, treated, inhibition, significance) (Carcinogen: 7,12-DIMETHYLBENZ[A]ANTHRACENE, 57-97-6, Dose [Inhibitor]: 0, 24 UG/KG IN ARACHIS OIL (5 ML/KG) REDUCED TO 16 UG/KG AFTER 4 WK 5/WK BEGINNING 1 D POST CARCINOGEN DOSE (STUDY DURAT, Route [Inhibitor]: GAVAGE, Species: RAT, Strain/Sex: SPRAGUE-DAWLEY/FEMALE, Target Tissue: Type of Lesion: MAMMARY GLAND: TUMOR, Dose [Carcinogen]: 15 MG IN ARACHIS OIL ONCE AT 50 D OF AGE, Promoter: NONE USED): 96%, 72%, 25%, not calculated

Structure (SMILES): O/N=C/Cc1c[nH]c2ccccc12
- tumour outcome (control, treated, inhibition, significance) (Carcinogen: 7,12-DIMETHYLBENZ[A]ANTHRACENE, 57-97-6, Dose [Inhibitor]: 0.1 MMOL IN 1 ML DIMETHYL SULFOXIDE ONCE 20 HR PRIOR TO CARCINOGEN ADMINISTRATION FOLLOWED BY A 14 WK OBSERVATION PERIOD, Route [Inhibitor]: GAVAGE, Species: RAT, Strain/Sex: SPRAGUE-DAWLEY/FEMALE, Target Tissue: Type of Lesion: MAMMARY GLAND: TUMOR, Dose [Carcinogen]: 12 MG IN 1 ML OLIVE OIL ONCE, Promoter: NONE USED): 64%, 19%, 70%, p<0.05

Structure (SMILES): CC1=C(/C=C/C(C)=C/C=C/C(C)=C\C(=O)NCCO)C(C)(C)CCC1
- tumour outcome (control, treated, inhibition, significance) (Carcinogen: N-BUTYL-N-(4-HYDROXYBUTYL)NITROSAMINE, 3817-11-6, Dose [Inhibitor]: 1.5 MMOL/KG DIET DAILY FOR 159 D STARTING 1 WK AFTER THE FINAL CARCINOGEN DOSE (STUDY DURATION: 216 D), Route [Inhibitor]: ORAL, Species: MOUSE, Strain/Sex: DBF1/MALE, Target Tissue: Type of Lesion: URINARY BLADDER: TRANSITIONAL CELL CARCINOMA, Dose [Carcinogen]: 7.5 MG 1/WK FOR 8 WK, Promoter: NONE USED): 29/98 (30%), 16/97 (17%), 43%, p<0.05
- tumour outcome (control, treated, inhibition, significance) (Carcinogen: N-BUTYL-N-(4-HYDROXYBUTYL)NITROSAMINE, 3817-11-6, Dose [Inhibitor]: 1.5 MMOL/KG IN DIET FOR 159 D STARTING 1 WK AFTER LAST CARCINOGEN DOSE (STUDY DURATION: 216 D), Route [Inhibitor]: ORAL, Species: MOUSE, Strain/Sex: BDF/MALE, Target Tissue: Type of Lesion: URINARY BLADDER: TRANSITIONAL CELL CARCINOMA, Dose [Carcinogen]: 7.5 MG 1/WK FOR 8 WK, Promoter: NONE USED): 29/98 (30%), 16/97 (17%), 43%, p<0.05

Structure (SMILES): CC1CCC(=O)O1 (centres undefined)
- tumour outcome (control, treated, inhibition, significance) (Carcinogen: BENZO[A]PYRENE, 50-32-8, Dose [Inhibitor]: 0.034 MMOL/G IN DIET FOR 5 WK BEGINNING 1 WK PRIOR TO CARCINOGEN DOSE (STUDY DURATION: 21 WK), Route [Inhibitor]: ORAL, Species: MOUSE, Strain/Sex: ICR/FEMALE, Target Tissue: Type of Lesion: FORESTOMACH: TUMOR, Dose [Carcinogen]: 1 MG IN 0.2 ML CORN OIL 2/WK FOR 4 WK, Promoter: NONE USED): (95%, 95%, 0%, not significant

Structure (SMILES): CC1(S(=O)(=O)O)CC(=O)c2ccccc2C1=O (centres undefined)
- tumour outcome (control, treated, inhibition, significance) (Carcinogen: 1,2-DIMETHYLHYDRAZINE, 540-73-8, Dose [Inhibitor]: 0, 20 MG/KG 3/WK FOR 24 WK BEGINNING FIRST WK OF CARCINOGEN TREATMENT (STUDY DURATION: 28 WK), Route [Inhibitor]: GAVAGE, Species: MOUSE, Strain/Sex: ICR/FEMALE, Target Tissue: Type of Lesion: COLON: TUMOR, Dose [Carcinogen]: 20 MG/KG 1/WK FOR 20 WK, Promoter: NONE USED): 9/13 (69%), 4/13 (31%), 55%, p<0.05
- tumour outcome (control, treated, inhibition, significance) (Carcinogen: 1,2-DIMETHYLHYDRAZINE, 540-73-8, Dose [Inhibitor]: 0, 20 MG/KG 3/WK FOR 28 WK BEGINNING FIRST WK OF CARCINOGEN TREATMENT (STUDY DURATION: 28 WK), Route [Inhibitor]: GAVAGE, Species: MOUSE, Strain/Sex: ICR/FEMALE, Target Tissue: Type of Lesion: COLON: TUMOR, Dose [Carcinogen]: 20 MG/KG 1/WK FOR 20 WK, Promoter: NONE USED): 13/13 (100%), 8/13 (62%), 38%, p<0.05
- tumour outcome (control, treated, inhibition, significance) (Carcinogen: 1,2-DIMETHYLHYDRAZINE, 540-73-8, Dose [Inhibitor]: 0, 40 MG/KG 3/WK FOR 24 WK BEGINNING FIRST WK OF CARCINOGEN TREATMENT (STUDY DURATION: 28 WK), Route [Inhibitor]: GAVAGE, Species: MOUSE, Strain/Sex: ICR/FEMALE, Target Tissue: Type of Lesion: COLON: TUMOR, Dose [Carcinogen]: 20 MG/KG 1/WK FOR 20 WK, Promoter: NONE USED): 9/13 (69%), 4/13 (31%), 55%, p<0.05
- tumour outcome (control, treated, inhibition, significance) (Carcinogen: 1,2-DIMETHYLHYDRAZINE, 540-73-8, Dose [Inhibitor]: 0, 40 MG/KG 3/WK FOR 28 WK BEGINNING FIRST WK OF CARCINOGEN TREATMENT (STUDY DURATION: 28 WK), Route [Inhibitor]: GAVAGE, Species: MOUSE, Strain/Sex: ICR/FEMALE, Target Tissue: Type of Lesion: COLON: TUMOR, Dose [Carcinogen]: 20 MG/KG 1/WK FOR 20 WK, Promoter: NONE USED): 13/13 (100%), 8/13 (62%), 38%, p<0.05
